The values that follow come from patent publication US20230381332A1, “Deuterated Camptothecin Derivative And Antibody-drug Conjugate Thereof” (Baili-Bio (Chengdu) Pharmaceutical Co., Ltd., priority 2020, published 2023).

A short description of the series: Clearance half-life test of deuterated camptothecin drugs in liver microsomes. In kind it is in vitro ADME, Human. How it is done: Embodiment 36: Clearance Half-Life Test of Deuterated Camptothecin Drugs
Human liver microsomes (supplied by Xenotech))
1. Add the working solution of the test substance to the liver microsome working solution and pre-incubate at 37° C. for 5 minutes, then add the prepared NADPH working solution and mix well. Make the reaction volume of the incubation system reach 200 μL, and the liver microsomes concentration in the incubation system is 1.0 mg/mL, the test substance concentration is 10 μM. The incubation tube is incubated in a water bath at 37° C. for 120 minutes. In the incubation system of the test substance, total organic solvents (DMSO and acetonitrile or other organic The minimum volume content of the solvent) is <1%, and the DMSO content is <0.1%. All operations are performed on wet ice.
2. For the blank sample, add the corresponding volume of phosphate buffer solution instead of the working solution of the test substance. For the 0 min sample, first add the stop solution and the liver microsome solution and mix well, and then add the working solution of the test substance.
3. At the end of the incubation, add 400 μL of stop solution to terminate the reaction, and remove the incubation sample from the water bath.
4. After the reaction was terminated, the sample was shaken and centrifuged at a centrifugal force of 4700 g for 10 minutes. After centrifugation, 200 μL of the supernatant was pipetted into a 96-well plate and directly used for LC-MS analysis to analyze metabolites and main drug ratio.
A general note: Liver microsomes are a subcellular fraction often used to study metabolism.

[1] abbreviates: human liver microsomes 1.0 mg/ml, 10 μM test article, NADPH 1.0 mM, 37° C., 120 minutes.

As to `[2H]C([2H])([2H])N(C(=O)CO)[C@@H]1CCc2c(C)c(F)cc3nc4c(c1c23)Cn1c-4cc2c(c1=O)COC(=O)[C@]2(O)CC` [D-D15], the “Ratio of main drug after incubation” value (human, 120 min, 10 μM) stood at 91%.
With `[2H]C(O)(C(=O)N[C@H]1CCc2c(C)c(F)cc3nc4c(c1c23)Cn1c-4cc2c(c1=O)COC(=O)[C@]2(O)CC)C1CC1` (stereo partly drawn) [D-D7], the “Ratio of main drug after incubation” value (human, 120 min, 10 μM) is given as 96%.
On the same count and under the same terms, under `[2H]C(O)(C(=O)N[C@H]1CCc2c(C)c(F)cc3nc4c(c1c23)Cn1c-4cc2c(c1=O)COC(=O)[C@]2(O)CC)C(F)(F)F` (stereo partly drawn) [D-D5] stands 99%; under `[2H]C([2H])([2H])C(O)C(=O)N(C)[C@@H]1CCc2c(C)c(F)cc3nc4c(c1c23)Cn1c-4cc2c(c1=O)COC(=O)[C@]2(O)CC` (stereo partly drawn) [D-D19], 97%; under `CC[C@@]1(O)C(=O)OCc2c1cc1n(c2=O)Cc2c-1nc1cc(F)c(C)c3c1c2[C@@H](NC(=O)[C@@H](O)C1CC1)CC3` [Compound 7, reference compound], 85%.
As to `[2H]C(C)(O)C(=O)N[C@H]1CCc2c(C)c(F)cc3nc4c(c1c23)Cn1c-4cc2c(c1=O)COC(=O)[C@]2(O)CC` (stereo partly drawn) [D-D3], for the setting “human, 120 min, 10 μM”, the “Ratio of main drug after incubation” value was 97%.
Regarding `CC[C@@]1(O)C(=O)OCc2c1cc1n(c2=O)Cc2c-1nc1cc(F)c(C)c3c1c2[C@@H](NC(=O)CO)CC3` [Compound 2, reference compound], the “Ratio of main drug after incubation” value under setting [1] was 65%.
`CC[C@@]1(O)C(=O)OCc2c1cc1n(c2=O)Cc2c-1nc1cc(F)c(C)c3c1c2[C@@H](NC(=O)[C@H](O)C(F)(F)F)CC3` [Compound 5, reference compound]: the “Ratio of main drug after incubation” value (human, 120 min, 10 μM) is recorded as 73%.
`[2H]C([2H])([2H])C([2H])(O)C(=O)N[C@H]1CCc2c(C)c(F)cc3nc4c(c1c23)Cn1c-4cc2c(c1=O)COC(=O)[C@]2(O)CC` (stereo partly drawn) [D-D11]: under “human, 120 min, 10 μM”, the “Ratio of main drug after incubation” value came out at 96%.
For the compound `[2H]C(O)C(=O)N[C@H]1CCc2c(C)c(F)cc3nc4c(c1c23)Cn1c-4cc2c(c1=O)COC(=O)[C@]2(O)CC` (stereo partly drawn) [D-D1], the “Ratio of main drug after incubation” value under setting [1] is on record as 98%.
As for `CC[C@@]1(O)C(=O)OCc2c1cc1n(c2=O)Cc2c-1nc1cc(F)c(C)c3c1c2[C@@H](NC(=O)[C@H](C)O)CC3` [Compound 3, reference compound], the “Ratio of main drug after incubation” value (human, 120 min, 10 μM) turned out to be 56%.
